Results taken from patent US20240246967A1, “AXL COMPOUNDS” (ARCUS BIOSCIENCES, INC., priority 2021, published 2024).

Columns and labels:
human MER = molecular target: T1, human MER (Homo sapiens, UniProt Q12866); experiment: HTRF KinEASE-TK biochemical potency assay, MER; conditions: 1 nM MER, 700 μM ATP, 800 nM TK Substrate-biotin
T1 construct: purchased Invitrogen
T1 sequence (Q12866 21-999): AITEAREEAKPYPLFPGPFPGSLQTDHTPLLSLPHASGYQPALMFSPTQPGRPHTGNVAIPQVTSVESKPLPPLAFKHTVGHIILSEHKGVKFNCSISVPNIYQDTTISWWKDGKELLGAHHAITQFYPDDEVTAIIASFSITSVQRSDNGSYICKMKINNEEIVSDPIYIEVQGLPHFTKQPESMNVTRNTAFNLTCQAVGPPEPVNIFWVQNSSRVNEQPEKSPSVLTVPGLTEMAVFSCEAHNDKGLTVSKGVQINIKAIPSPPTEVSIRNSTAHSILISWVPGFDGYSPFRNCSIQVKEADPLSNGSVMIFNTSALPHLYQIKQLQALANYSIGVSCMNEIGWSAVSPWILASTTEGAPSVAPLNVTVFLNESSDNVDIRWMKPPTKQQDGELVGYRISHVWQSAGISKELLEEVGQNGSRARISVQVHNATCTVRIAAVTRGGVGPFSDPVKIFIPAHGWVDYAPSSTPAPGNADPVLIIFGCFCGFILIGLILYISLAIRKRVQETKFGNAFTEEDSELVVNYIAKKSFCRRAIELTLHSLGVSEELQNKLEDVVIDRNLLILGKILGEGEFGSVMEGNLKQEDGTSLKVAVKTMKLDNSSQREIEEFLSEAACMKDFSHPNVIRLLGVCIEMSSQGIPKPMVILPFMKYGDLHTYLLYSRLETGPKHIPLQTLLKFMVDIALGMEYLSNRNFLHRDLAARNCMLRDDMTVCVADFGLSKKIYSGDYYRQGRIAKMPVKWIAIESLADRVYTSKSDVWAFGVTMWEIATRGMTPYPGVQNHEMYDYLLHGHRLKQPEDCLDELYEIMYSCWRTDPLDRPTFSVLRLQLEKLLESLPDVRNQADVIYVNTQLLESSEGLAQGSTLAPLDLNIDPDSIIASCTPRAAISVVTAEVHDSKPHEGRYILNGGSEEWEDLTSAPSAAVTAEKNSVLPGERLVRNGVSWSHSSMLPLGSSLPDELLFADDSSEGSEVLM
Experimental: (§1) Purified recombinant human AXL, TYRO3 and MER proteins were purchased from Invitrogen™. 10 nM AXL, 2 nM TYRO3 or MER were incubated with varying concentrations of compounds in 50 mM HEPES, pH 7.4, 10 mM MgCl2, 0.01% BSA, 1 mM DTT and 2% DMSO in a total volume of 20 μl in a 384-well microplate (Corning™ #3640) at RT for 1 h. The AXL, TYRO3 and MER enzymatic reaction was initiated by transferring 10 μl of enzyme and compound mixture into 10 μl of 1.6 μM TK Substrate-biotin (HTRF® KinEASE-TK kit, Cisbio) and 1400 μM ATP pre-incubated in 50 mM HEPES, pH 7.4, 10 mM MgCl2, 0.01% BSA, 1 mM DTT in a 384-well microplate (Corning™ #3640) at RT, giving the final reaction conditions: 5 nM AXL, 1 nM TYRO3 or MER, 800 nM TK Substrate-biotin and 700 μM ATP in 50 mM HEPES, pH 7.4, 10 mM MgCl2, 0.01% BSA, 1 mM DTT and 1% DMSO with varying concentrations of compounds. Following 2 h incubation at RT, the AXL, TYRO3 and MER enzymatic reaction was stopped by transfer of 10 μl of reaction into 10 μl of detection mix (400 nM Streptavidin-XL665, 200-fold dilution TK Antibody-Cryptate and detection buffer, HTRF® KinEASE-TK kit, Cisbio) in a white 384-well microplate (Perkin Elmer, OptiPlate 384). After 1 h incubation at RT, the plate was put into a plate reader (Evision) to read at 665/620 nm (acceptor/donor) for HTRF. The value of the DMSO blank (MIN inhibition=100% activity) was used as a negative control. The positive control was established by adding 5 μl of enzyme and DMSO mixture into 10 μl of detection mix followed by addition of 5 μl of TK Substrate-biotin and ATP mixture (MAX inhibition=0% activity). To calculate the percent activity, Equation 1 was used. Ratio 665/620 is the value at a given compound concentration: […]

human TYRO3 = molecular target: T2, human TYRO3 (Homo sapiens, UniProt Q06418); experiment: HTRF KinEASE-TK biochemical potency assay, TYRO3; conditions: 1 nM TYRO3, 700 μM ATP, 800 nM TK Substrate-biotin
T2 construct: purchased Invitrogen
T2 sequence (Q06418 41-890): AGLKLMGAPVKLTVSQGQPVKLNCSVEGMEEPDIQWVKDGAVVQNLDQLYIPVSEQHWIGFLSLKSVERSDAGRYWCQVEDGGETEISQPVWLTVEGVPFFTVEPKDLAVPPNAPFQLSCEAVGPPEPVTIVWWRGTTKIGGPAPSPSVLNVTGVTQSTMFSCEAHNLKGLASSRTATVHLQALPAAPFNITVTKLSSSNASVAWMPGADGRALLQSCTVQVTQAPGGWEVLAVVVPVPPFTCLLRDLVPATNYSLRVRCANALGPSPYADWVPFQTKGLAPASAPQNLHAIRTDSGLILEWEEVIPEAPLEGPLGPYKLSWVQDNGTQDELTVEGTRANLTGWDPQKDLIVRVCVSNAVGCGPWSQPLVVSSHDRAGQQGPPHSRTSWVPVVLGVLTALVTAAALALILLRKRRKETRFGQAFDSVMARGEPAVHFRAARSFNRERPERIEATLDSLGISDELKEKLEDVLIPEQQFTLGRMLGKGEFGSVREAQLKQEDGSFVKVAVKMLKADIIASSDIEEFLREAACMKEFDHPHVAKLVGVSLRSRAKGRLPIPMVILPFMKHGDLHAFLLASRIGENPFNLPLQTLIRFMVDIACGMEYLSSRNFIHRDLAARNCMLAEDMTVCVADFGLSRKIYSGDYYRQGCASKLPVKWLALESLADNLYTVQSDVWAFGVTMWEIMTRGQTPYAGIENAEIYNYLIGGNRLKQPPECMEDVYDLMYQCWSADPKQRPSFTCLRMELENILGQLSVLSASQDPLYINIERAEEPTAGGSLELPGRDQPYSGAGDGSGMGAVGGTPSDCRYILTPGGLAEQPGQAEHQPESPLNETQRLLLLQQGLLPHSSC
Experimental: as §1

CC1(N2CCC[C@H]2CO)CCc2ccc(-c3cnc4[nH]nc(-c5ccc(S(=O)(=O)C6CC6)cc5)c4c3)cc2CC1 (stereo partly drawn) [Example 4, [(2S)-1-(2-{3-[4-(Cyclopropanesulfonyl)phenyl]-1H-pyrazolo[3,4-b]pyridin-5-yl}-7-methyl-6,7,8,9-tetrahydro-5H-benzo[7]annulen-7-yl)pyrrolidin-2-yl]methanol] showed an IC50 (human MER) of 100 to 1000 nM and an IC50 (human TYRO3) of 100 to 1000 nM.

C[C@H]1CCCN1C1(C)CCc2ccc(-c3cnc4[nH]nc(-c5ccc(S(=O)(=O)C6CC6)cc5)c4c3)cc2CC1 (stereo partly drawn) [Example 5, (2S)-1-(2-{3-[4-(Cyclopropanesulfonyl)phenyl]-1H-pyrazolo[3,4-b]pyridin-5-yl}-7-methyl-6,7,8,9-tetrahydro-5H-benzo[7]annulen-7-yl)-2-methylpyrrolidine] was tested, and the IC50 (human MER) was 100 to 1000 nM and the IC50 (human TYRO3) was < 100 nM.

With CCC1(N2CCC[C@H]2C)CCc2ccc(-c3cnc4[nH]nc(-c5ccc(S(=O)(=O)C6CC6)cc5)c4c3)cc2CC1 (stereo partly drawn) [Example 6, (2R)-1-(2-{3-[4-(Cyclopropanesulfonyl)phenyl]-1H-pyrazolo[3,4-b]pyridin-5-yl}-7-ethyl-6,7,8,9-tetrahydro-5H-benzo[7]annulen-7-yl)-2-methylpyrrolidine] the IC50 (human MER) was > 1000 nM and the IC50 (human TYRO3) was 100 to 1000 nM.

CC1(N2CCC2)CCc2ccc(-c3cnc4[nH]nc(-c5ccc(S(=O)(=O)C6CC6)cc5)c4c3)cc2CC1 (stereo not drawn) [Example 7, 1-(2-{3-[4-(Cyclopropanesulfonyl)phenyl]-1H-pyrazolo[3,4-b]pyridin-5-yl}-7-methyl-6,7,8,9-tetrahydro-5H-benzo[7]annulen-7-yl)azetidine] gave an IC50 (human MER) of 100 to 1000 nM and an IC50 (human TYRO3) of 100 to 1000 nM.

C[C@@H]1CCCN1C1(C)CCc2ccc(-c3cnc4[nH]nc(-c5ccc(S(=O)(=O)C(F)(F)F)cc5)c4c3)cc2CC1 (stereo partly drawn) [Example 8, (2R)-2-Methyl-1-{7-methyl-2-[3-(4-trifluoromethanesulfonylphenyl)-1H-pyrazolo[3,4-b]pyridin-5-yl]-6,7,8,9-tetrahydro-5H-benzo[7]annulen-7-yl}pyrrolidine] was tested, and the IC50 (human MER) was > 1000 nM and the IC50 (human TYRO3) was > 1000 nM.

For CC(C)(O)c1ccc(-c2n[nH]c3ncc(-c4ccc5c(c4)CCC(N4CCCC4)CC5)cc23)cn1 (stereo not drawn) [Example 9, 2-(5-{5-[7-(Pyrrolidin-1-yl)-6,7,8,9-tetrahydro-5H-benzo[7]annulen-2-yl]-1H-pyrazolo[3,4-b]pyridin-3-yl}pyridin-2-yl)propan-2-ol], the IC50 (human MER) was 100 to 1000 nM and the IC50 (human TYRO3) was < 100 nM.

Work on CC(C)(O)c1ccc(-c2n[nH]c3ncc(-c4ccc5c(c4)CCN(C4CCCC4)CC5)cc23)cn1 [Example 10, 2-{5-[5-(3-Cyclopentyl-2,3,4,5-tetrahydro-1H-3-benzazepin-7-yl)-1H-pyrazolo[3,4-b]pyridin-3-yl]pyridin-2-yl}propan-2-ol] yielded an IC50 (human MER) of 100 to 1000 nM and an IC50 (human TYRO3) of 100 to 1000 nM.

CC(C)(O)c1ccc(-c2n[nH]c3ncc(-c4ccc5c(c4)CCC(N4CCCC4)CC5)cc23)cc1Cl (stereo not drawn) [Example 11, 2-(2-Chloro-4-{5-[7-(pyrrolidin-1-yl)-6,7,8,9-tetrahydro-5H-benzo[7]annulen-2-yl]-1H-pyrazolo[3,4-b]pyridin-3-yl}phenyl)propan-2-ol] was tested, and the IC50 (human MER) was 100 to 1000 nM and the IC50 (human TYRO3) was 100 to 1000 nM.

CC(C)(O)c1ccc(-c2n[nH]c3ncc(-c4ccc5c(c4)CCN(C4CCCC4)CC5)cc23)cc1Cl [Example 12, 2-{2-Chloro-4-[5-(3-cyclopentyl-2,3,4,5-tetrahydro-1H-3-benzazepin-7-yl)-1H-pyrazolo[3,4-b]pyridin-3-yl]phenyl}propan-2-ol] was tested, and the IC50 (human MER) was > 1000 nM and the IC50 (human TYRO3) was > 1000 nM.

CC(C)(O)c1ccc(-c2n[nH]c3ncc(-c4ccc5c(c4)CCN(C4CCCC4)CC5)cc23)cc1C(F)(F)F [Example 16, 2-{4-[5-(3-Cyclopentyl-2,3,4,5-tetrahydro-1H-3-benzazepin-7-yl)-1H-pyrazolo[3,4-b]pyridin-3-yl]-2-(trifluoromethyl)phenyl}propan-2-ol] was tested, and the IC50 (human MER) was 100 to 1000 nM and the IC50 (human TYRO3) was 100 to 1000 nM.

For CC(C)(O)c1ccc(-c2n[nH]c3ncc(-c4ccc5c(c4)CCN(C4CCCC4)CC5)cc23)c(F)c1 [Example 17, 2-{4-[5-(3-Cyclopentyl-2,3,4,5-tetrahydro-1H-3-benzazepin-7-yl)-1H-pyrazolo[3,4-b]pyridin-3-yl]-3-fluorophenyl}propan-2-ol], the IC50 (human MER) was > 1000 nM and the IC50 (human TYRO3) was 100 to 1000 nM.

C[C@@H]1CCCN1C1CCc2ccc(-c3cnc4[nH]nc(-c5ccc(C(C)(C)O)c(C(F)(F)F)c5)c4c3)cc2CC1 (stereo partly drawn) [Example 20, 2-[4-(5-{7-[(2R)-2-Methylpyrrolidin-1-yl]-6,7,8,9-tetrahydro-5H-benzo[7]annulen-2-yl}-1H-pyrazolo[3,4-b]pyridin-3-yl)-2-(trifluoromethyl)phenyl]propan-2-ol] was tested, and the IC50 (human MER) was 100 to 1000 nM and the IC50 (human TYRO3) was < 100 nM.

CC(C)(O)c1ccc(-c2n[nH]c3ncc(-c4ccc5c(c4)CCC(N4CCC[C@@H]4CO)CC5)cc23)cc1Cl (stereo partly drawn) [Example 21, 2-[2-Chloro-4-(5-{7-[(2R)-2-(hydroxymethyl)pyrrolidin-1-yl]-6,7,8,9-tetrahydro-5H-benzo[7]annulen-2-yl}-1H-pyrazolo[3,4-b]pyridin-3-yl)phenyl]propan-2-ol] gave an IC50 (human MER) of 100 to 1000 nM and an IC50 (human TYRO3) of 100 to 1000 nM.

With C[C@@H]1CCCN1C1(C)CCc2ccc(-c3cnc4[nH]nc(-c5ccc(C(C)(C)O)nc5)c4c3)cc2CC1 (stereo partly drawn) [Example 22, 2-[5-(5-{7-Methyl-7-[(2R)-2-methylpyrrolidin-1-yl]-6,7,8,9-tetrahydro-5H-benzo[7]annulen-2-yl}-1H-pyrazolo[3,4-b]pyridin-3-yl)pyridin-2-yl]propan-2-ol] the IC50 (human MER) was 100 to 1000 nM and the IC50 (human TYRO3) was < 100 nM.

With CS(=O)(=O)N1CCC(c2n[nH]c3ncc(-c4ccc5c(c4)CCC(N4CCCC4)CC5)cc23)CC1 (stereo not drawn) [Example 23, 1-Methanesulfonyl-4-{5-[7-(pyrrolidin-1-yl)-6,7,8,9-tetrahydro-5H-benzo[7]annulen-2-yl]-1H-pyrazolo[3,4-b]pyridin-3-yl}piperidine] the IC50 (human MER) was 100 to 1000 nM and the IC50 (human TYRO3) was 100 to 1000 nM.
